PMC12081877 (Nature Communications, 2025)

Assays:
in vitro = settings: human, Caco-2, Caco-2 permeability Papp A to B
M^pro = settings: cited from earlier work

Cn1cnc(Cn2c(=O)[nH]/c(=N\c3cc4cn(C)nc4cc3Cl)n(Cc3cc(F)c(F)cc3F)c2=O)n1 [Ensitrelvir]
Papp A→B (in vitro): 0.42 ×10⁻⁶ cm/s

C[C@H](NC(=O)[C@@H](c1cccnc1)N(C(=O)C(Cl)Cl)c1ccc(-c2ccccc2)cc1)c1ccccc1 [Jun9-62-2R]
IC50 (M^pro): 430 nM

CC(C)(C)[C@H](NC(=O)C(F)(F)F)C(=O)N1C[C@H]2[C@@H]([C@H]1C(=O)N[C@H](C#N)C[C@@H]1CCNC1=O)C2(C)C [Nirmatrelvir]
Papp A→B (in vitro): < 0.1 ×10⁻⁶ cm/s
